Here are results for one molecule from ChEMBL document CHEMBL5579878, “Allosteric Activation of Protein Phosphatase 5 with Small Molecules” (J Med Chem, 2024).

Positions count from the first letter of the chain named. The source made the active and inactive calls. The rule behind the calls is not given here.

Test [1] concerns HCT-116. Put plainly: Downregulation of AT13387-induced HSP40 expression in PP5 Knockout human HCT-116 cells at 50 uM incubated for 24 hrs by Western blot analysis. It is filed as functional, cell-based.
The test system of test [2] is HCT-116. Nature of the test: Downregulation of AT13387-induced HSP27 expression in PP5 Knockout human HCT-116 cells at 50 uM incubated for 24 hrs by Western blot analysis. The format is functional, cell-based.
Test [3] concerns the target T1, Serine/threonine-protein phosphatase 5 (Homo sapiens) (UniProt P53041).
T1 sequence (whole entry): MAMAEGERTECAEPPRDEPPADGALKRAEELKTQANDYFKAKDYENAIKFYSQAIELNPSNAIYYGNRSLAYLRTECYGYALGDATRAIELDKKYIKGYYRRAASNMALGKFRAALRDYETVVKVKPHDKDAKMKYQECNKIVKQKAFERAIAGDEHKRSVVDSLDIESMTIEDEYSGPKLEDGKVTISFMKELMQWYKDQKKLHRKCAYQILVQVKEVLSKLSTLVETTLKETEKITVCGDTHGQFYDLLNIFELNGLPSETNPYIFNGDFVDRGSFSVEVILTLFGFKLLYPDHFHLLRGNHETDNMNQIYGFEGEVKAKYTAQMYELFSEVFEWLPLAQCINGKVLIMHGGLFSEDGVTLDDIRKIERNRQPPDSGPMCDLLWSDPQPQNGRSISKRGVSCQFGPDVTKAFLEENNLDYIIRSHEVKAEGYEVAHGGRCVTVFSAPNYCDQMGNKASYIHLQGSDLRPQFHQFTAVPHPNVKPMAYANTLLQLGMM
Nature of the test: Binding affinity to His-tagged human PP5 extracted from Escherichia coli BL21 at 200 uM by STD-NMR analysis. Conditions: filed as activator.

The target in test [4] is T2, Serine/threonine-protein phosphatase 5 (Homo sapiens, UniProt P53041).
T2 sequence (P53041 whole entry): T1 sequence (whole entry)
Put plainly: Binding affinity to His-tagged human PP5 phosphatase domain extracted from Escherichia coli BL21 assessed as dissociation constant by ITC analysis. (In general: ITC needs no label: the signal is the heat of the interaction.)

For test [5], the target named is Serine/threonine-protein phosphatase PP1-alpha catalytic subunit (Homo sapiens) (UniProt P62136). Nature of the test: Inhibition of PP1A (unknown origin) using DiFMUP as substrate at 0.01 to 1000 uM. Conditions: dose 0.01-1000 µM.
Sequence of Serine/threonine-protein phosphatase PP1-alpha catalytic subunit (Homo sapiens) (P62136 whole entry): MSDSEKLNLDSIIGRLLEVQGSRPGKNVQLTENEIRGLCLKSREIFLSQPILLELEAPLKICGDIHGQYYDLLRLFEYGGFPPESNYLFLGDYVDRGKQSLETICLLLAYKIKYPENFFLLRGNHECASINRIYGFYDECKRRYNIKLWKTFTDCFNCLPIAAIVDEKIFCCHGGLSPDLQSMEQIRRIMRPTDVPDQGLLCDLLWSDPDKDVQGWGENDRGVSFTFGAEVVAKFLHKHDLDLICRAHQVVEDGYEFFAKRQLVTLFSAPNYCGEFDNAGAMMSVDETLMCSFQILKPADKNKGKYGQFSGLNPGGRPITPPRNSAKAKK
The subject of test [6] is T3, Serine/threonine-protein phosphatase 5 (Homo sapiens), P53041 [V429A].
T3 sequence (whole entry): T1 sequence (whole entry) with V429A
Put plainly: Activation of PP5 V429A mutant (unknown origin) using pNPP as substrate assessed as increase in phosphatase activity at 10 to 200 uM incubated for 30 mins by spectrophotometric analysis. Conditions: dose 10-200 µM.

For test [7], the target named is T1, Serine/threonine-protein phosphatase 5 (Homo sapiens). Nature of the test: Induction of thermal stabilization of PP5 in human HCT-116 cells assessed as increase in melting temperature at 100 uM incubated for 12 hrs at 37 to 58 degreeC by CETSA. The format is cell-based.
In test [8] the test system is HCT-116. Put plainly: Effect on HSP27 expression level in human HCT-116 cells at 1 to 100 uM incubated for 24 hrs by Western blot analysis. Conditions: dose 1-100 µM. It is filed as functional, cell-based.
Test [9] deals with HCT-116. Nature of the test: Downregulation of AT13387-induced HSP70 expression in human HCT-116 cells at 50 uM incubated for 24 hrs by Western blot analysis. The format is functional, cell-based. In general terms: Immunoblotting shows a protein as a band on a membrane.
In test [10] the test system is HCT-116. Put plainly: Downregulation of AT13387-induced HSP27 mRNA expression in human HCT-116 cells at 50 uM incubated for 24 hrs by qRT-PCR analysis. The format is functional, cell-based. (Quantitative PCR measures a nucleic acid by following its amplification.)
Test [11] has as its system HCT-116. Nature of the test: Downregulation of AT13387-induced HSP70 mRNA expression in human HCT-116 cells at 50 uM incubated for 24 hrs by qRT-PCR analysis. The format is functional, cell-based.
In test [12] the test system is HCT-116. Nature of the test: Antitumor activity against human HCT-116 cells xenografted in BALB/c nude mouse assessed as decrease in AT13387-induced HSP40 protein expression in tumor at 30 to 60 mg/kg, ip administered every other day for 14 days by Western blot analysis. It is filed as functional, organism-based. Conditions: dose 30-60 mg/kg, time 14.0 day.

With `N=c1oc2cc(F)cc(F)c2cc1C(N)=S`, the result in test [1], in [2], in [6] and in test [8] was inactive. Besides, the outcome in [3], in test [9], in test [10], in [11] and in test [12] was Active. Further, in test [4], the Kd – broadly, the concentration at which binding is half-saturated – worked out at 0.811 µM. Moreover, the inhibition result in [5] was “inactive”. Also, the ΔTm (commonly the change in melting temperature against a reference sample) in [7] was 1.48 °C.
